Key:
[1] = bacteroides fragilis, 12 h, 2 µM
Description: The drug is tested on Bacteroides fragilis strain: NCTC 9343 for biotransformation. The drug concentrations were measured before and after a 12-h incubation by liquid-chromatography-coupled mass spectrometry (LC–MS)

[2] = The drug is tested on Eggerthella lenta strain: ATCC25559 for biotransformation. The drug concentrations were measured before and after a 12-h incubation by liquid-chromatography-coupled mass spectrometry (LC–MS); details: 2 µM
[3] = bacteroides thetaiotaomicron, 12 h, 2 µM
Description: The drug is tested on Bacteroides thetaiotaomicron strain: VPI-5482 for biotransformation. The drug concentrations were measured before and after a 12-h incubation by liquid-chromatography-coupled mass spectrometry (LC–MS)

[4] = anaerostipes sp., 12 h, 2 µM
Description: The drug is tested on Anaerostipes sp. strain: fecal isolate for biotransformation. The drug concentrations were measured before and after a 12-h incubation by liquid-chromatography-coupled mass spectrometry (LC–MS)

[5] = roseburia intestinalis, 12 h, 2 µM
Description: The drug is tested on Roseburia intestinalis strain: L1-82 for biotransformation. The drug concentrations were measured before and after a 12-h incubation by liquid-chromatography-coupled mass spectrometry (LC–MS)

[6] = victivallis vadensis, 12 h, 2 µM
Description: The drug is tested on Victivallis vadensis strain: ATCC BAA-548 for biotransformation. The drug concentrations were measured before and after a 12-h incubation by liquid-chromatography-coupled mass spectrometry (LC–MS)

[7] = The drug is tested on Enterococcus faecalis strain: V583 for biotransformation. The drug concentrations were measured before and after a 12-h incubation by liquid-chromatography-coupled mass spectrometry (LC–MS); details: 2 µM
[8] = The drug is tested on Clostridium spiroforme strain: DSM1552 for biotransformation. The drug concentrations were measured before and after a 12-h incubation by liquid-chromatography-coupled mass spectrometry (LC–MS); details: thomasclavelia spiroformis, 2 µM
[9] = clostridioides difficile, 12 h, 2 µM
Description: The drug is tested on Clostridium difficile strain: 120 for biotransformation. The drug concentrations were measured before and after a 12-h incubation by liquid-chromatography-coupled mass spectrometry (LC–MS)

[10] = The drug is tested on Clostridium hathewayi strain: DSM13479 for biotransformation. The drug concentrations were measured before and after a 12-h incubation by liquid-chromatography-coupled mass spectrometry (LC–MS); details: hungatella hathewayi, 2 µM
[11] = The drug is tested on Salmonella typhimurium strain: LT2 for biotransformation. The drug concentrations were measured before and after a 12-h incubation by liquid-chromatography-coupled mass spectrometry (LC–MS); details: salmonella enterica subsp. enterica, 2 µM
[12] = The drug is tested on Proteus penneri strain: ATCC35198 for biotransformation. The drug concentrations were measured before and after a 12-h incubation by liquid-chromatography-coupled mass spectrometry (LC–MS); details: 2 µM

SMILES	Bacterial Biotransformation [1]	Bacterial Biotransformation [2]	Bacterial Biotransformation [3]	Bacterial Biotransformation [4]	Bacterial Biotransformation [5]	Bacterial Biotransformation [6]	Bacterial Biotransformation [7]	Bacterial Biotransformation [8]	Bacterial Biotransformation [9]	Bacterial Biotransformation [10]	Bacterial Biotransformation [11]	Bacterial Biotransformation [12]
CCC(COC(=O)c1cc(OC)c(OC)c(OC)c1)(c1ccccc1)N(C)C.O=C(O)/C=C\C(=O)O (stereo not given)	Compound metabolized	Compound metabolized	Compound metabolized	Compound metabolized	Compound metabolized	Compound metabolized	Compound metabolized					
CC1=C(CC(=O)O)c2cc(F)ccc2/C1=C\c1ccc([S+](C)[O-])cc1 (stereo not given)	Compound NOT metabolized	Compound NOT metabolized	Compound NOT metabolized	Compound NOT metabolized	Compound NOT metabolized	Compound NOT metabolized	Compound NOT metabolized					
O=C(NCc1ccccc1)OCCO [BURAMATE]	Compound NOT metabolized	Compound NOT metabolized	Compound NOT metabolized	Compound NOT metabolized	Compound NOT metabolized	Compound NOT metabolized	Compound NOT metabolized					
CCCCCCOC(=O)/N=C(/N)c1ccc(NCc2nc3cc(C(=O)N(CCC(=O)OCC)c4ccccn4)ccc3n2C)cc1.CS(=O)(=O)O [DABIGATRAN ETEXILATE MESYLATE]	Compound NOT metabolized	Compound NOT metabolized	Compound NOT metabolized	Compound NOT metabolized	Compound NOT metabolized	Compound NOT metabolized	Compound NOT metabolized					
C#C[C@]1(OC(C)=O)CC[C@H]2[C@@H]3CCC4=C[C@@H](OC(C)=O)CC[C@@H]4[C@H]3CC[C@@]21C [ETHYNODIOL DIACETATE]	Compound NOT metabolized	Compound NOT metabolized	Compound NOT metabolized	Compound NOT metabolized	Compound NOT metabolized	Compound NOT metabolized	Compound NOT metabolized					
CC(C)OC(=O)C(C)(C)Oc1ccc(C(=O)c2ccc(Cl)cc2)cc1 [FENOFIBRATE]	Compound metabolized			Compound metabolized				Compound NOT metabolized	Compound metabolized	Compound metabolized		
CCCCC1=NC2(CCCC2)C(=O)N1Cc1ccc(-c2ccccc2-c2nnn[nH]2)cc1 [IRBESARTAN]	Compound metabolized		Compound metabolized	Compound metabolized		Compound NOT metabolized	Compound NOT metabolized	Compound metabolized	Compound NOT metabolized	Compound metabolized		
O=c1[nH]c2ccccc2n1C1CCN(CCCC(c2ccc(F)cc2)c2ccc(F)cc2)CC1 [PIMOZIDE]	Compound NOT metabolized		Compound NOT metabolized	Compound NOT metabolized	Compound NOT metabolized	Compound NOT metabolized	Compound NOT metabolized				Compound NOT metabolized	
O=C([O-])C[C@H](O)C[C@H](O)/C=C/c1c(C2CC2)nc2ccccc2c1-c1ccc(F)cc1.O=C([O-])C[C@H](O)C[C@H](O)/C=C/c1c(C2CC2)nc2ccccc2c1-c1ccc(F)cc1.[Ca+2] [PITAVASTATIN CALCIUM]	Compound NOT metabolized	Compound NOT metabolized	Compound NOT metabolized	Compound NOT metabolized		Compound NOT metabolized		Compound NOT metabolized	Compound NOT metabolized			
COc1cc2nc(N3CCN(C(=O)c4ccco4)CC3)nc(N)c2cc1OC [PRAZOSIN]			Compound NOT metabolized	Compound NOT metabolized	Compound NOT metabolized		Compound NOT metabolized	Compound NOT metabolized		Compound NOT metabolized		
CC(N)C12CC3CC(CC(C3)C1)C2 (stereo not given) [RIMANTADINE]	Compound NOT metabolized	Compound NOT metabolized	Compound NOT metabolized	Compound NOT metabolized	Compound NOT metabolized	Compound NOT metabolized	Compound NOT metabolized					
CC(C)c1nc(CN(C)C(=O)N[C@H](C(=O)N[C@@H](Cc2ccccc2)C[C@H](O)[C@H](Cc2ccccc2)NC(=O)OCc2cncs2)C(C)C)cs1 [RITONAVIR]	Compound metabolized	Compound NOT metabolized	Compound NOT metabolized	Compound NOT metabolized	Compound NOT metabolized	Compound NOT metabolized	Compound NOT metabolized					
CC(C)NCC(O)c1ccc(NS(C)(=O)=O)cc1 (stereo not given) [SOTALOL]	Compound NOT metabolized	Compound NOT metabolized	Compound metabolized	Compound NOT metabolized	Compound NOT metabolized	Compound NOT metabolized	Compound NOT metabolized					
O=C1C(CC[S+]([O-])c2ccccc2)C(=O)N(c2ccccc2)N1c1ccccc1 (stereo not given) [SULFINPYRAZONE]	Compound metabolized	Compound metabolized	Compound NOT metabolized	Compound NOT metabolized	Compound NOT metabolized	Compound NOT metabolized	Compound NOT metabolized	Compound NOT metabolized		Compound NOT metabolized		
Nc1c2c(nc3ccccc13)CCCC2 [TACRINE]			Compound NOT metabolized	Compound NOT metabolized	Compound NOT metabolized		Compound NOT metabolized	Compound NOT metabolized	Compound NOT metabolized	Compound NOT metabolized	Compound NOT metabolized	Compound NOT metabolized
CN(C/C=C/C#CC(C)(C)C)Cc1cccc2ccccc12 [TERBINAFINE]	Compound NOT metabolized	Compound NOT metabolized	Compound NOT metabolized	Compound NOT metabolized	Compound NOT metabolized	Compound NOT metabolized	Compound NOT metabolized					
CC(C)(C)NC[C@H](O)COc1nsnc1N1CCOCC1.O=C(O)/C=C\C(=O)O [TIMOLOL MALEATE]	Compound NOT metabolized		Compound NOT metabolized	Compound NOT metabolized	Compound NOT metabolized		Compound NOT metabolized	Compound NOT metabolized	Compound NOT metabolized	Compound NOT metabolized		
COc1ccc(CN2CCNCC2)c(OC)c1OC.Cl.Cl [TRIMETAZIDINE DIHYDROCHLORIDE]	Compound metabolized	Compound NOT metabolized	Compound metabolized	Compound NOT metabolized	Compound NOT metabolized	Compound NOT metabolized	Compound NOT metabolized					
COc1ccc(C(CN(C)C)C2(O)CCCCC2)cc1 (stereo not given) [VENLAFAXINE]	Compound NOT metabolized	Compound NOT metabolized	Compound NOT metabolized	Compound NOT metabolized	Compound NOT metabolized	Compound NOT metabolized	Compound NOT metabolized					
CC(=O)CC(c1ccccc1)c1c(O)c2ccccc2oc1=O (stereo not given) [WARFARIN]	Compound NOT metabolized	Compound NOT metabolized	Compound NOT metabolized	Compound NOT metabolized	Compound NOT metabolized	Compound NOT metabolized	Compound NOT metabolized					
CS(=O)(=O)O.O.O.O.O=C1Cc2cc(CCN3CCN(c4nsc5ccccc45)CC3)c(Cl)cc2N1 [ZIPRASIDONE MESYLATE]	Compound NOT metabolized	Compound NOT metabolized	Compound NOT metabolized	Compound NOT metabolized	Compound NOT metabolized	Compound NOT metabolized	Compound NOT metabolized					

— ChEMBL document CHEMBL5303573, “Mapping human microbiome drug metabolism by gut bacteria and their genes” (Nature, 2019)
